pIC50: −log10 of the molar value. [5FU] = 5-fluorouracil base (5-fluoro-2'-deoxyuridine unit); [GEM] = 2',2'-difluoro-2'-deoxycytidine (gemcitabine); [5FC] = 5-fluoro-2'-deoxycytidine; d = 2'-deoxy (DNA)

The test system of data set [1] is PC-3 cell line (prostate cancer cell). The data set can be described thus: Cell apoptosis (XTT method) in PC-3 cells. The format is cell-based. The settings on record: PC3 (Prostate Cancer Cells), cultured six days, XTT. Here is the method:
(§1) Each oligonucleotide was diluted in 10 mM Tris-HCl (pH 7.4) to a final concentration of 100 μM. The diluted solution was placed at 94° C. for 5 minutes and then quickly placed them on ice and left therein for 5 minutes. The resultant was added with 2M KCl to a final concentration of 50 mM, left at 60° C. for 3 hours and then slowly cooled down to room temperature.
(§2) One day before the experiment, 190 μL of culture, wherein PC-3 cell line(prostate cancer cell) was suspended at a concentration of 10^3-10^4/mL, was inoculated respectively into each well of a 96 well plate. The next day, 10 μL of the oligonucleotide solution prepared in Example 1 was added and cultured for six days. Six days after the inoculation, cell apoptosis rate measured by means of XTT method [JBC 1999, 26369].

Data set [2] concerns MCF7-DX (Breast Cancer Cells), a drug-resistance cell line. In words: Cell apoptosis (XTT method) in MCF7-DX cells. The format is cell-based. The protocol:
[Worded in the source for another cell line; this cell line is reported under the same test.] as §1, §2
As a result, it was confirmed that the cell apoptosis rate of APT-2001, APT-2002 and APT-2003 (the novel modified oligonucleotides of the present invention), was 3-10 times higher than those of APT-4001 (positive control) and APT-4002 (negative control) as measured in terms of IC50 or IC90 (FIG. 2). […] In addition, the cell apoptotic activity of the oligonucleotides, prepared according to the present invention over the K562 CML (chronic myeloid leukemia), MV-4-11 AML (acute leukemia) cells, were also verified.
Background: Tetrazolium assays rely on reduction of a dye to a coloured formazan, in cell work by metabolically active cells.

As for “APT-2035: GGTGGTGGTTNTGGTGGTGG (SEQ. ID. NO. 24); N=2′,2′-difluoro deoxycytidine, G=2-deoxy-guanosine, H=thymidine (2',2'-difluoro deoxycytidine modified nucleosides, chemistry not fully specified)”, the negative logarithm of the IC50 (pIC50) in data set [1] was 7.46; in data set [2] it was 8.15.

The substance “APT-2043: GGNGGNGGTGGTTGTGGTGGNGGNGG (SEQ. ID. NO. 33); N=5-F-deoxyuridine, G=2-deoxy-guanosine, H=thymidine (5-F-deoxyuridine modified nucleosides)” gave a pIC50 in data set [2] of 6.22.

In the case of “APT-2042: GGNGGNGGNGGTTGTGGNGGNGGNGG (SEQ. ID. NO. 32); N=5-F-deoxyuridine, G=2-deoxy-guanosine, H=thymidine (5-F-deoxyuridine modified nucleosides)”, the pIC50 in data set [2] is 6.30.

As for “APT-2066: GGTGGTGGTGGTNNTGGTGGTGGTGG (SEQ. ID. NO. 29); N=2′,2′-difluoro deoxycytidine, G=2-deoxy-guanosine, H=thymidine (DNA GGTGGTGGTGGTCCTGGTGGTGGTGG; sugars from the 5' end d12 [GEM]2 d12, backbone not given here; G-quadruplex forming oligonucleotide)”, the values for the pIC50 in data set [1] and in data set [2] were 7.47 and 8.00, respectively.

For the substance “APT-2013: NNNGGNGGNGGNGGTTGTGGNGGNGGNGG (SEQ. ID. NO. 10); N=5-F-deoxyuridine, G=2-deoxy-guanosine, H=thymidine (DNA UUUGGUGGUGGUGGTTGTGGUGGUGGUGG; DNA, [5FU] at 1, 2, 3, 6, 9, 12, 21, 24, 27, backbone not given here)”, the pIC50 in data set [1] is 7.05; in data set [2] it was 6.18.

“APT-2072: GGTGGTGGTTNTGGTGGTGGN (SEQ. ID. NO. 47); N=2′,2′-difluoro deoxycytidine, G=2-deoxy-guanosine, H=thymidine (2',2'-difluoro deoxycytidine modified nucleosides, chemistry not fully specified)” gave a pIC50 in data set [1] of 7.92.

On to “APT-2060: GGTGGTGGNTGTGGTGGTGG (SEQ. ID. NO. 37); N=2′,2′-difluoro deoxycytidine, G=2-deoxy-guanosine, H=thymidine (aptamer; listed as DNA, chemistry not fully specified)”, for which the figures for the pIC50 in data set [1] and in data set [2] were 7.40 and 7.64, respectively.

As for “APT-2067: GGTGGTGGTGGTNGTGGTGGTGGTGG (SEQ. ID. NO. 43); N=2′,2′-difluoro deoxycytidine, G=2-deoxy-guanosine, H=thymidine (DNA GGTGGTGGTGGTCGTGGTGGTGGTGG; sugars from the 5' end d12 [GEM]1 d13, backbone not given here; G-quadruplex forming oligonucleotide)”, the pIC50 in data set [2] is 7.62.

Consider “APT-2044: GGNGGTGGTGGTTGTGGTGGTGGNGG (SEQ. ID. NO. 34); N=5-F-deoxycytidine, G=2-deoxy-guanosine, H=thymidine (DNA GGCGGTGGTGGTTGTGGTGGTGGCGG; DNA, [5FC] at 3, 24, backbone not given here; G-quadruplex forming oligonucleotide)”, for which the pIC50 in data set [2] was under 6.00.

On to “APT-2063: GGTGGTGGTNGNGGTGGTGG (SEQ. ID. NO. 40); N=2′,2′-difluoro deoxycytidine, G=2-deoxy-guanosine, H=thymidine (aptamer; listed as DNA, chemistry not fully specified)”, for which the negative logarithm of the IC50 (pIC50) in data set [1] was 7.66; in data set [2], 8.10.

In turn, “APT-2040: GGTGGTGGTGGTTNTGGTGGTGGTGG (SEQ. ID. NO. 30); N=5-F-deoxyuridine, G=2-deoxy-guanosine, H=thymidine (DNA GGTGGTGGTGGTTUTGGTGGTGGTGG; DNA, [5FU] at 14, backbone not given here)” gave a pIC50 in data set [2] of under 6.00.

“APT-2054: GGTGGTGGTGGTTNTGGTGGTGGTGG (SEQ. ID. NO. 30); N=2′,2′-difluoro deoxycytidine, G=2-deoxy-guanosine, H=thymidine (DNA GGTGGTGGTGGTTCTGGTGGTGGTGG; sugars from the 5' end d13 [GEM]1 d12, backbone not given here; G-quadruplex forming oligonucleotide)”: the pIC50 in data set [1] and in data set [2] was over 6.52 each time.

For “APT-2070: GGNGGTGGTGGTTGTGGTGGTGGTGG (SEQ. ID. NO. 45); N=2′,2′-difluoro deoxycytidine, G=2-deoxy-guanosine, H=thymidine (2',2'-difluoro deoxycytidine modified nucleosides, chemistry not fully specified)”, the pIC50 was 7.62 in data set [1] and 7.89 in data set [2].

For the substance “APT-2023: GGNGGTGGNGG (SEQ. ID. NO. 21); N=5-F-deoxyuridine, G=2-deoxy-guanosine, H=thymidine (DNA GGUGGTGGUGG; DNA, [5FU] at 3, 9, backbone not given here)”, the values for the pIC50 in data set [1] and in data set [2] were 6.59 and 5.73, respectively.

On to “APT-2032: GGTGGTGGTTNTGGTGGTGG (SEQ. ID. NO. 24); N=5-F-deoxyuridine, G=2-deoxy-guanosine, H=thymidine (DNA GGTGGTGGTTUTGGTGGTGG; aptamer; DNA, [5FU] at 11, backbone not given here)”, for which the pIC50 was under 5.00 in data set [1] and 5.44 in data set [2].

Turning to “APT-2020: GGTGGTGGNNNNGGTGGTGG (SEQ. ID. NO. 18); N=5-F-deoxyuridine, G=2-deoxy-guanosine, H=thymidine (DNA GGTGGTGGUUUUGGTGGTGG; DNA, [5FU] at 9, 10, 11, 12, backbone not given here)”, the pIC50 in data set [1] is 6.80; in data set [2], 6.05.

In the case of “APT-2022: GGTGGNNNNGGTGG (SEQ. ID. NO. 20); N=5-F-deoxyuridine, G=2-deoxy-guanosine, H=thymidine (DNA GGTGGUUUUGGTGG; DNA, [5FU] at 6, 7, 8, 9, backbone not given here)”, the values for the pIC50 in data set [1] and in data set [2] were 6.96 and 6.10, respectively.

As for “APT-2031: GGTGGTGGTNNTGGTGGTGG (SEQ. ID. NO. 23); N=5-F-deoxyuridine, G=2-deoxy-guanosine, H=thymidine (DNA GGTGGTGGTUUTGGTGGTGG; aptamer; DNA, [5FU] at 10, 11, backbone not given here)”, the pIC50 is under 5.00 in data set [1] and 5.82 in data set [2].

Take “APT-2069: GGTGGTGGTGGTNGNGGTGGTGGTGG (SEQ. ID. NO. 44); N=2′,2′-difluoro deoxycytidine, G=2-deoxy-guanosine, H=thymidine (2',2'-difluoro deoxycytidine modified nucleosides, chemistry not fully specified)”: the pIC50 in data set [2] is 8.00.

Turning to “APT-2033: GGTGGTGGTTTNGGTGGTGG (SEQ. ID. NO. 25); N=5-F-deoxyuridine, G=2-deoxy-guanosine, H=thymidine (DNA GGTGGTGGTTTUGGTGGTGG; aptamer; DNA, [5FU] at 12, backbone not given here)”, the pIC50 was under 5.00 in data set [1] and 5.48 in data set [2].

In turn, “APT-2071: GGTGGNGGTGGTTGTGGTGGNGGTGG (SEQ. ID. NO. 46); N=2′,2′-difluoro deoxycytidine, G=2-deoxy-guanosine, H=thymidine (2',2'-difluoro deoxycytidine modified nucleosides, chemistry not fully specified)” gave a negative-log IC50 (pIC50) in data set [2] of 7.82.

As to “APT-2061: GGTGGTGGTNGTGGTGGTGG (SEQ. ID. NO. 38); N=2′,2′-difluoro deoxycytidine, G=2-deoxy-guanosine, H=thymidine (DNA GGTGGTGGTCGTGGTGGTGG; aptamer; sugars from the 5' end d9 [GEM]1 d10, backbone not given here; G-quadruplex forming oligonucleotide)”, the pIC50 is 7.39 in data set [1] and 7.66 in data set [2].

In the case of “APT-2034: GGTGGTGGTNNNGGTGGTGG (SEQ. ID. NO. 26); N=5-F-deoxyuridine, G=2-deoxy-guanosine, H=thymidine (DNA GGTGGTGGTUUUGGTGGTGG; DNA, [5FU] at 10, 11, 12, backbone not given here)”, the results for the pIC50 in data set [1] and in data set [2] were under 5.00 and 5.92, respectively.

Take “APT-2064: GGNGGTGGTTGTGGTGGNGG (SEQ. ID. NO. 41); N=2′,2′-difluoro deoxycytidine, G=2-deoxy-guanosine, H=thymidine (DNA GGCGGTGGTTGTGGTGGCGG; sugars from the 5' end d2 [GEM]1 d14 [GEM]1 d2, backbone not given here; G-quadruplex forming oligonucleotide)”: the results for the pIC50 in data set [1] and in data set [2] were 7.80 and 8.10, respectively.

For the substance “APT-2068: GGTGGTGGTGGTTGNGGTGGTGGTGG (SEQ. ID. NO. 31); N=2′,2′-difluoro deoxycytidine, G=2-deoxy-guanosine, H=thymidine (2',2'-difluoro deoxycytidine modified nucleosides, chemistry not fully specified)”, the negative logarithm of the IC50 (pIC50) in data set [2] is 7.64.

Broadly, the pIC50 is the IC50 on a negative log10 scale, so that one unit is a factor of ten. Read a low pIC50 as a high IC50.

The values are drawn from US9056886B2, “Guanosine-rich modified oligonucleotides and antiproliferative activity thereof” (APTABIO THERAPEUTICS INC., priority 2009, dated 2015).
